Drawing on patent US6764996B1, “9a-azalides with antibacterial activity” (Abbott Laboratories, priority 1999, dated 2004), this text covers Antibacterial Activity (MIC) for four molecules.

Some results are limits rather than exact numbers.

Holding throughout (experiment): In vitro antibacterial activity, agar dilution MIC
Common to all, as to type: cell-based
For orientation: Agar dilution tests growth on a series of plates holding different concentrations.

Assay [1] relates to Candida albicans CCH 442. The following applies: code TT: Candida albicans CCH 442; BHI agar, 35-37° C., 20 to 24 hours; unit assumed. Here is the method: (§1) Representative compounds of the present invention were assayed in vitro for antibacterial activity as follows: Twelve petri dishes containing successive aqueous dilutions of the test compound mixed with 10 mL of sterilized Brain Heart Infusion (BHI) agar (Difco 0418-01-5) were prepared. Each plate was inoculated with 1:100 (or 1:10 for slow-growing strains, such as Micrococcus and Streptococcus) dilutions of up to 32 different microorganisms, using a Steers replicator block. The inoculated plates were incubated at 35-37° C. for 20 to 24 hours. In addition, a control plate, using BHI agar containing no test compound, was prepared and incubated at the beginning and end of each test.
(§2) An additional plate containing a compound having known susceptibility patterns for the organisms being tested and belonging to the same antibiotic class as the test compound was also prepared and incubated as a further control, as well as to provide test-to-test comparability. Erythromycin A was used for this purpose.
(§3) After incubation, each plate was visually inspected. The minimum inhibitory concentration (MIC) was defined as the lowest concentration of drug yielding no growth, a slight haze, or sparsely isolated colonies on the inoculum spot as compared to the growth control.

Assay [2] has as its system Escherichiacoli JUHL. The following applies: code QQ: Escherichiacoli JUHL; BHI agar, 35-37° C., 20 to 24 hours; unit assumed. Here is the method: as §1, §2, §3
In assay [3] the test system is Escherichiacoli SS. As to conditions: code RR: Escherichiacoli SS; BHI agar, 35-37° C., 20 to 24 hours; unit assumed. Here is the method: as §1, §2, §3
Assay [4] deals with Haemophilislnfluenzae DILL AMP R. As to conditions: code WW: Haemophilislnfluenzae DILL AMP R; BHI agar, 35-37° C., 20 to 24 hours; unit assumed. Here is the method:
as §1, §2, §3

Assay [5] relates to Micrococcusluteus ATCC 4698. As to conditions: code PP: Micrococcusluteus ATCC 4698; BHI agar, 35-37° C., 20 to 24 hours; unit assumed. Here is the method: as §1, §2, §3
The subject of assay [6] is Mycobacterium smegmatis ATCC 114. The following applies: code UU: Mycobacterium smegmatis ATCC 114; BHI agar, 35-37° C., 20 to 24 hours; unit assumed. Here is the method:
as §1, §2, §3

In assay [7] the test system is Nocardia Asteroides ATCC 99700. As to conditions: code VV: Nocardia Asteroides ATCC 99700; BHI agar, 35-37° C., 20 to 24 hours; unit assumed. Here is the method: as §1, §2, §3
Assay [8] deals with Staphylococcus aureus 1775. As to conditions: code GG: Staphylococcus aureus 1775; BHI agar, 35-37° C., 20 to 24 hours; unit assumed. Here is the method: as §1, §2, §3
Assay [9] deals with Staphylococcus aureus A-5177. The following applies: code BB: Staphylococcus aureus A-5177; BHI agar, 35-37° C., 20 to 24 hours; unit assumed. Here is the method:
as §1, §2, §3

Assay [10] concerns Staphylococcus aureus A-5278. The following applies: code CC: Staphylococcus aureus A-5278; BHI agar, 35-37° C., 20 to 24 hours; unit assumed. Here is the method: as §1, §2, §3
Assay [11] deals with Staphylococcus aureus ATCC 6538P. The following applies: code AA: Staphylococcus aureus ATCC 6538P; BHI agar, 35-37° C., 20 to 24 hours; unit assumed. Here is the method:
as §1, §2, §3

Assay [12] relates to Staphylococcus aureus NCTC 10649M. The following applies: code EE: Staphylococcus aureus NCTC 10649M; BHI agar, 35-37° C., 20 to 24 hours; unit assumed. Here is the method: as §1, §2, §3
The test system of assay [13] is Staphylococcus epidermidis 3519. The following applies: code HH: Staphylococcus epidermidis 3519; BHI agar, 35-37° C., 20 to 24 hours; unit assumed. Here is the method: as §1, §2, §3
Assay [14] has as its system Streptococcus Pneumonia 5649. As to conditions: code ZA: Streptococcus Pneumonia 5649; BHI agar, 35-37° C., 20 to 24 hours; unit assumed. Here is the method: as §1, §2, §3
Assay [15] has as its system Streptococcus Pneumonia ATCC 6303. As to conditions: code XX: Streptococcus Pneumonia ATCC 6303; BHI agar, 35-37° C., 20 to 24 hours; unit assumed. Here is the method:
as §1, §2, §3

Assay [16] has as its system Streptococcus Pneumonia GYR 1171. The following applies: code YY: Streptococcus Pneumonia GYR 1171; BHI agar, 35-37° C., 20 to 24 hours; unit assumed. Here is the method: as §1, §2, §3
For assay [17], the system named is Streptococcus agalactiae CMX 508. As to conditions: code KK: Streptococcus agalactiae CMX 508; BHI agar, 35-37° C., 20 to 24 hours; unit assumed. Here is the method: as §1, §2, §3
The test system of assay [18] is Streptococcus bovis A-5169. As to conditions: code JJ: Streptococcus bovis A-5169; BHI agar, 35-37° C., 20 to 24 hours; unit assumed. Here is the method: as §1, §2, §3
The subject of assay [19] is Streptococcus pyogenes 930. As to conditions: code MM: Streptococcus pyogenes 930; BHI agar, 35-37° C., 20 to 24 hours; unit assumed. Here is the method:
as §1, §2, §3

Assay [20] deals with Streptococcus pyogenes EES61. The following applies: code LL: Streptococcus pyogenes EES61; BHI agar, 35-37° C., 20 to 24 hours; unit assumed. Here is the method: as §1, §2, §3
For assay [21], the system named is Streptococcus pyogenes PIU 2548. As to conditions: code NN: Streptococcus pyogenes PIU 2548; BHI agar, 35-37° C., 20 to 24 hours; unit assumed. Here is the method: as §1, §2, §3
Assay [22] deals with Streptococcus Pneumonia 5979. The following applies: code ZZ: Streptococcus Pneumonia 5979; BHI agar, 35-37° C., 20 to 24 hours; unit assumed. Here is the method: as §1
An additional plate containing a compound having known susceptibility patterns for the organisms being tested and belonging to the same antibiotic class as the test compound was also prepared and incubated as a further control, as well as to provide test-to-test comparability.
as §3

In the case of `CC[C@H]1OC(=O)[C@H](C)[C@@H](O[C@H]2C[C@@](C)(OC)[C@@H](O)[C@H](C)O2)[C@H](C)[C@@H](O[C@@H]2O[C@H](C)C[C@H](N(C)C)[C@H]2O)[C@](C)(O)C[C@@H](C)C(=O)[C@H](C)[C@@H](O)[C@]1(C)O` [Ery. A, Erythromycin A, reference compound], the Antibacterial Activity (MIC) in assay [1] is over 100 µg/mL; in assay [2], over 100 µg/mL; in assay [3], 0.78 µg/mL; in assay [4], 4 µg/mL; in [5], 0.2 µg/mL; in [6] it was 3.1 µg/mL. The Antibacterial Activity (MIC) is 0.1 µg/mL in assay [7]; over 100 µg/mL in assay [8]; 3.1 µg/mL in assay [9]; over 100 µg/mL in assay [10]; 0.2 µg/mL in assay [11]; 0.39 µg/mL in assay [12]. Also, the Antibacterial Activity (MIC) in assay [13] is 0.39 µg/mL; in assay [14] it was 16 µg/mL; in [15], 0.06 µg/mL; in [16] it was 0.06 µg/mL; in assay [17] it was 0.05 µg/mL; in assay [18], 0.02 µg/mL. In addition, the Antibacterial Activity (MIC) in [19] is over 100 µg/mL; in assay [20] it was 0.05 µg/mL; in [21] it was 6.2 µg/mL.
`C=CCOC1(C)CC(C)CNC(C)C(O)C(C)(O)C(CC)OC(=O)C(C)C(OC2CC(C)(OC)C(O)C(C)O2)C(C)C1OC1OC(C)CC(N(C)C)C1O` (stereo not drawn) [Example 2, Compound of formula (I): R^1 is —CH2CH═CH2, R^4 is hydrogen, R^5 is hydrogen, R^6 is hydrogen, R^7 is hydrogen, R^8 is hydrogen]: the Antibacterial Activity (MIC) is over 100 µg/mL in assay [1]; 50 µg/mL in assay [2]; 0.78 µg/mL in assay [3]; 8 µg/mL in assay [4]; 0.39 µg/mL in assay [5]; 6.2 µg/mL in [6]. The Antibacterial Activity (MIC) is 0.1 µg/mL in [7]; over 100 µg/mL in assay [8]; 12.5 µg/mL in assay [9]; over 100 µg/mL in assay [10]; 0.2 µg/mL in assay [11]; 0.39 µg/mL in assay [12]. Further, the Antibacterial Activity (MIC) in assay [13] was determined as 0.2 µg/mL; in [14], 16 µg/mL; in assay [15] it was 0.06 µg/mL; in assay [16], 0.06 µg/mL; in assay [17], 0.05 µg/mL; in assay [18], 0.02 µg/mL. Moreover, the Antibacterial Activity (MIC) in [19] is over 100 µg/mL; in assay [20], 0.05 µg/mL; in [21], 6.2 µg/mL; in [22] it was over 128 µg/mL.
Regarding `C=CCOC1(C)CC(C)CN(C)C(C)C(O)C(C)(O)C(CC)OC(=O)C(C)C(OC2CC(C)(OC)C(O)C(C)O2)C(C)C1OC1OC(C)CC(N(C)C)C1O` (stereo not drawn) [Example 3, Compound of formula (I): R^1 is —CH2CH═CH2, R^4 is hydrogen, R^5 is hydrogen, R^6 is methyl, R^7 is hydrogen, R^8 is hydrogen], the Antibacterial Activity (MIC) in [1] is over 100 µg/mL; in assay [2], 50 µg/mL; in assay [3], 0.39 µg/mL; in [4], 8 µg/mL; in [5], 0.39 µg/mL; in [6], 6.2 µg/mL. Besides, the Antibacterial Activity (MIC) is 0.1 µg/mL in assay [7]; over 100 µg/mL in assay [8]; 12.5 µg/mL in assay [9]; over 100 µg/mL in [10]; 0.2 µg/mL in assay [11]; 0.39 µg/mL in assay [12]. Further, the Antibacterial Activity (MIC) in assay [13] came to 0.39 µg/mL; in [14], 8 µg/mL; in assay [15], 0.06 µg/mL; in assay [16] it was 0.06 µg/mL; in assay [17], 0.1 µg/mL; in assay [18] it was 0.05 µg/mL. In addition, the Antibacterial Activity (MIC) was over 100 µg/mL in assay [19], 0.05 µg/mL in [20], 6.2 µg/mL in assay [21] and over 128 µg/mL in assay [22].
`C=CCOC1(C)CC(C)CN(C)C(C)C(O)C(C)(O)C(CC)OC(=O)C(C)C(O)C(C)C1OC1OC(C)CC(N(C)C)C1O` (stereo not drawn) [Example 4, Compound of formula (II): R^1 is —CH2CH═CH2, R^2 is hydrogen, R^3 is —OR^13, R^13 is hydrogen, R^4 is hydrogen, R^5 is hydrogen, R^6 is methyl, R^8 is hydrogen]: the Antibacterial Activity (MIC) in assay [1] is over 100 µg/mL; in [2], 50 µg/mL; in assay [3], 0.78 µg/mL; in [4], 4 µg/mL; in assay [5], 0.39 µg/mL; in assay [6], 6.2 µg/mL. Also, the Antibacterial Activity (MIC) in assay [7] is 0.05 µg/mL; in assay [8], over 100 µg/mL; in [9], 6.2 µg/mL; in assay [10], over 100 µg/mL; in assay [11] it was 0.39 µg/mL; in assay [12], 0.39 µg/mL. In addition, the Antibacterial Activity (MIC) in assay [13] is 0.39 µg/mL; in assay [14] it was 8 µg/mL; in assay [15], 0.03 µg/mL; in [16], 0.03 µg/mL; in assay [17] it was 0.05 µg/mL; in [18], 0.02 µg/mL. Also, the Antibacterial Activity (MIC) was over 100 µg/mL in assay [19], 0.05 µg/mL in assay [20], 6.2 µg/mL in assay [21] and over 128 µg/mL in assay [22].
